Values of other authors as cited in US20110308985A1, “COMPOSITION OF A LIPOSOMAL GEL CONTAINING HYDROCORTISONE, ITS METABOLITES, PRECURSORS OR MIXTURES THEREOF AND THE USE THEREOF” (priority 2009, published 2011).

In the case of `C[C@]12CCC(=O)C=C1CC[C@@H]1[C@@H]2[C@@H](O)C[C@@]2(C)[C@H]1CC[C@]2(O)C(=O)CO` [hydrocortisone, (11beta)-11,17,21-trihydroxypregn-4-ene-3,20-dione], the “serum peak relative to the physiological morning peak” value (about 1 hour after intake of a tablet) is given as “over 3 times” and the biological half-life (oral administration form) is given as “about 100 minutes”.
